SMILES strings stand for the structures.

Common to all, as to type: physicochemical
Data set [1] is described as follows: XRPD of the mixed powder in the study on the mixing process (crystal form stability). Particulars: mixed powder of Example 1, mixing process.
The nature of data set [2]: Solubility / biopharmaceutical classification.
A short description of data set [3]: Hygroscopicity of the active pharmaceutical ingredient. The conditions noted are these: active pharmaceutical ingredient (API).

As for `C=CC(=O)N1CCC([C@@H]2CCNc3c(C(N)=O)c(-c4ccc(Oc5ccccc5)cc4)nn32)CC1` [zanubrutinib, (S)-7-[4-(1-acryloylpiperidine)]-2-(4-phenoxyphenyl)-4,5,6,7-tetrahydropyrazolo[1,5-a]pyrimidine-3-carboxamide], the “crystal form of zanubrutinib in the process (XRPD)” value in data set [1] is “remained unchanged”. In addition, in data set [2], the “class of the biopharmaceutical classification system” value is reported as “class II” and the solubility entry is recorded as “pH-dependent”. In addition, in data set [3], the hygroscopicity entry is on record as “slightly hygroscopic”.
